*1 amine or outer side, *2 acyl side, *3 side chain or, on linkers, in order; H or OH if unused. Where a SMILES comes first, the peptide text is derived from it. Bridges are numbered along the chain shown (N, C = ends). [ ]: non-standard residue; d: D form. cBu(1-CO,cis-3-CH2NH) = O=C([C@H]1C[C@@H](CN[*:1])C1)[*:2]; X75 = CCC[C@H](N[*:1])c1nncn1[C@@H](Cc1ccccc1)C(=O)[*:2]; NMeNva(5-imidazol-1-yl) = CN[C@@H](CCCn1ccnc1)C(=O)O; Phe(4-guanidino) = N=C(N)Nc1ccc(C[C@H](N)C(=O)O)cc1; X76 = CN(CCC[C@@H](C(=O)[*:2])N(C)[*:1])S(C)(=O)=O; X22 = CNC(=N)N(C)CCC[C@@H](C(=O)[*:2])N(C)[*:1]; Ala(pyrimidin-5-yl) = N[C@@H](Cc1cncnc1)C(=O)O; X71 = COc1c(F)cc(C[C@H](N[*:1])C(=O)[*:2])cc1F; NMe3Pal(6-Me) = CN[C@@H](Cc1ccc(C)nc1)C(=O)O; X5 = O=C([C@H](Cc1c(F)ccnc1F)N[*:1])[*:2]; Leu(4,5-dehydro) = C=C(C)C[C@H](N)C(=O)O; X15 = O=C([C@H](Cc1cnccc1F)N[*:1])[*:2]; NMeAha = CN[C@@H](CCN=[N+]=[N-])C(=O)O; Phe(4-F) = N[C@@H](Cc1ccc(F)cc1)C(=O)O; X35 = CN([C@@H](CCCF)C(=O)[*:2])[*:1]; Phe(2-F) = N[C@@H](Cc1ccccc1F)C(=O)O; X31 = O=C([C@H](CCC1CC1)N[*:1])[*:2]; NMe3Pal = CN[C@@H](Cc1cccnc1)C(=O)O; X1 = O=C(C12CC(CN[*:1])(C1)C2)[*:2]; NMeOrn(Me) = CNCCC[C@H](NC)C(=O)O; Ala(cPr) = N[C@@H](CC1CC1)C(=O)O; NMeF = CN[C@@H](Cc1ccccc1)C(=O)O; PhLac = O=C(O)[C@@H](O)Cc1ccccc1; 3Pal = N[C@@H](Cc1cccnc1)C(=O)O; X58 = O=C(C1CC(N[*:1])C1)[*:2]; Ahp(2) = CCCCC[C@H](N)C(=O)O; Cba = N[C@@H](CC1CCC1)C(=O)O; hLeu = CC(C)CC[C@H](N)C(=O)O; αMeC = C[C@](N)(CS)C(=O)O; NMeA = CN[C@@H](C)C(=O)O; Nle = CCCC[C@H](N)C(=O)O

What is called EC50 is the concentration giving half of the maximal effect. High values mean lower potency in that assay, low ones higher potency in that assay.

In this test the target is KRAS-G12D protein (Homo sapiens, UniProt P01116, G12D). Briefly: SOS-mediated nucleotide exchange assay (BODIPY-GDP / Tb-streptavidin TR-FRET). The test is classed as biochemical.
Chain of KRAS-G12D protein (P01116 1-188 isoform P01116-2 G12D): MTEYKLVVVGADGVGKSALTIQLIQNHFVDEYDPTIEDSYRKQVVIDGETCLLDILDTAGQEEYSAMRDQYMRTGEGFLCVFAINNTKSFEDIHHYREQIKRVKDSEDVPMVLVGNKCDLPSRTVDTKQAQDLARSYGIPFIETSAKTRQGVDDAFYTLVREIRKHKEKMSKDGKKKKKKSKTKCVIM
Compound `CC(C)CC[C@@H]1NC(=O)[C@H](Cc2cnccc2F)NC(=O)[C@H](CC2CC2)NC(=O)[C@H](Cc2cncnc2)NC(=O)[C@H](C)N(C)C(=O)[C@H](Cc2ccccc2)OC(=O)C23CC(CNC(=O)[C@H](Cc4ccccc4)N(C)C1=O)(C2)C3` [compound 213, cyclo(FLac-NMcA-PyrimAla-cPrA-3Pal6F-hL-NMeF-amBCP)] (cyclo([Ala(cPr)][X15][hLeu][NMeF][X1][PhLac][NMeA][Ala(pyrimidin-5-yl)])) showed an EC50 of 3.72 nM.
`CCCC[C@@H]1NC(=O)[C@H](Cc2cccnc2)NC(=O)[C@H](CCN=[N+]=[N-])N(C)C(=O)[C@H](Cc2ccccc2)OC(=O)C23CC(CNC(=O)[C@H](Cc4cccnc4)N(C)C(=O)[C@H](CCCC)NC(=O)[C@H](Cc4ccccc4F)NC1=O)(C2)C3` [compound 249, cyclo(FLac-NMeDabN3-3Pal-Nle-Phe2F-Nle-NMe3Pal-amBCP)] (cyclo([3Pal][Nle][Phe(2-F)][Nle][NMe3Pal][X1][PhLac][NMeAha])): the midpoint of the response, the EC50, lay at 87.6 nM.
For `CCCC[C@@H]1NC(=O)[C@H](Cc2ccc(NC(=N)N)cc2)NC(=O)[C@H](CCCN(C)C(=N)NC)N(C)C(=O)[C@H](Cc2ccccc2)NC(=O)[C@H]2C[C@@H](CNC(=O)[C@H](Cc3ccccc3)N(C)C(=O)[C@H](CCCC)NC(=O)[C@H](Cc3ccc(OC)cc3)NC1=O)C2` [compound 384, cyclo(F-NMeArg1MeMe-Phe4Gn-Nle-TyrOMe-Nle-NMeF-c3amCblc)] (cyclo(F[X22][Phe(4-guanidino)][Nle]Y(Me)[Nle][NMeF][cBu(1-CO,cis-3-CH2NH)])), the EC50 was determined as 181 nM.
With `CC(C)CC[C@@H]1NC(=O)[C@H](Cc2ccccc2F)NC(=O)[C@H](CC2CC2)NC(=O)[C@H](Cc2cncnc2)NC(=O)[C@H](CCCF)N(C)C(=O)[C@H](Cc2ccccc2)OC(=O)C23CC(CNC(=O)[C@H](Cc4ccccc4)N(C)C1=O)(C2)C3` [compound 216, cyclo(FLac-NMeNvaF-PyrimAla-cPrA-Phe2F-hL-NMeF-amBCP)] (cyclo([Ala(cPr)][Phe(2-F)][hLeu][NMeF][X1][PhLac][X35][Ala(pyrimidin-5-yl)])) the figure was 26 nM; with `CCC[C@@H]1NC(=O)[C@H](Cc2ccc(OC)cc2)NC(=O)[C@H](CC2CCC2)NC(=O)[C@H](Cc2cccnc2)NC(=O)[C@H](CCCNC(=N)N)NC(=O)[C@H](Cc2ccccc2)NC(=O)CSC[C@H](C(N)=O)NC(=O)[C@H](Cc2ccccc2)n2cnnc21` [SEQ ID NO: 64, cyclo(F-R-3Pal-cBuA- TyrOMe-124triazole- dC-ClAc)] ({CH2CO}-FR[3Pal][Cba]Y(Me)[X75][dC]-NH2; thioether N-7), 2820 nM; with `CON=C1C[C@@H](Cc2ccccc2)C(=O)N(C)[C@@H](C)C(=O)N[C@@H](Cc2cncnc2)C(=O)N[C@@H](CC2CC2)C(=O)N[C@@H](Cc2ccccc2F)C(=O)N[C@@H](CCC(C)(F)F)C(=O)N(C)[C@@H](Cc2ccccc2)C(=O)NCC23CC1(C2)C3` (single isomer, unassigned) [compound 177, cyclo(CPhe-NMeA-PyrimAla-cPrA-Phe2F-Nle3F2-NMeF-MeOximamBCP)], 51 nM.
On to `C=C(C)C[C@@H]1NC(=O)[C@H](CC2CC2)NC(=O)[C@H](Cc2cncnc2)NC(=O)[C@H](C)N(C)C(=O)[C@H](Cc2ccccc2)OC(=O)C23CC(CNC(=O)[C@H](Cc4ccccc4)N(C)C(=O)[C@H](CCC(C)C)NC1=O)(C2)C3` [compound 287, cyclo(FLac-NMeA-PyrimAla-cPrA-deHLeu-hL-NMeF-amBCP)] (cyclo([Ala(cPr)][Leu(4,5-dehydro)][hLeu][NMeF][X1][PhLac][NMeA][Ala(pyrimidin-5-yl)])), for which the EC50 turned out to be 720 nM.
With `CCCC[C@@H]1NC(=O)[C@H](Cc2cccnc2)NC(=O)[C@H](CCCn2ccnc2)N(C)C(=O)[C@H](Cc2ccccc2)NC(=O)C23CC(CNC(=O)[C@H](Cc4cccnc4)N(C)C(=O)[C@H](CCCC)NC(=O)[C@H](Cc4ccccc4F)NC1=O)(C2)C3` [compound 265, cyclo(F-NMeNvalmid~3Pal-Nle-Phe2F-Nlc-NMe3Pal-amBCP)] (cyclo(F[NMeNva(5-imidazol-1-yl)][3Pal][Nle][Phe(2-F)][Nle][NMe3Pal][X1])) the figure was 90.9 nM.
The compound `CCCC[C@@H]1NC(=O)[C@H](Cc2cccnc2)NC(=O)[C@H](CCCN(C)S(C)(=O)=O)N(C)C(=O)[C@H](Cc2ccccc2)OC(=O)C23CC(CNC(=O)[C@H](Cc4cccnc4)N(C)C(=O)[C@H](CCCC)NC(=O)[C@H](Cc4ccccc4F)NC1=O)(C2)C3` [compound 406, cyclo(FLac-NMeOmSuf-3Pal-Nle-Phe2F-Nle-NMe3Pal-amBCP)] (cyclo([3Pal][Nle][Phe(2-F)][Nle][NMe3Pal][X1][PhLac][X76])) returned an EC50 of 26 nM.
`CC(C)CC[C@@H]1NC(=O)[C@H](Cc2c(F)ccnc2F)NC(=O)[C@H](CC2CC2)NC(=O)[C@H](Cc2cncnc2)NC(=O)[C@H](C)N(C)C(=O)[C@H](Cc2ccccc2)OC(=O)C23CC(CNC(=O)[C@H](Cc4ccccc4)N(C)C1=O)(C2)C3` [compound 295, cyclo(FLac-NMeA-PyrimAla-cPrA-3Pal26F2-hL-NMeF-amBCP)] (cyclo([Ala(cPr)][X5][hLeu][NMeF][X1][PhLac][NMeA][Ala(pyrimidin-5-yl)])) came in with an EC50 of 63 nM.
Compound `CCCC[C@@H]1NC(=O)[C@H](Cc2cncnc2)NC(=O)[C@H](C)N(C)C(=O)[C@H](Cc2ccccc2)OC(=O)C23CC(CNC(=O)[C@H](Cc4ccccc4)N(C)C(=O)[C@H](CCCC)NC(=O)[C@H](Cc4ccccc4F)NC1=O)(C2)C3` [compound 230, cyclo(FLac-NMeA-PyrimAla-Nle-Phe2F-Nle-NMeF-amBCP)] (cyclo([NMeA][Ala(pyrimidin-5-yl)][Nle][Phe(2-F)][Nle][NMeF][X1][PhLac])) yielded an EC50 of 17.4 nM.
`CCCC[C@@H]1NC(=O)[C@H](Cc2ccc(O)cc2)NC(=O)[C@H](CC(C)C)NC(=O)[C@H](Cc2ccc(O)cc2)NC(=O)[C@H](CCCNC(=N)N)NC(=O)[C@H](Cc2ccccc2)NC(=O)CSC[C@@H](C(N)=O)NC(=O)[C@H](Cc2ccccc2)N(C)C1=O` [compound 1, cyclo(F-R-Y-L-Y-Nle-NMeF-Cl-ClAc)] gave an EC50 of 912 nM.
Regarding `CCCC[C@@H]1NC(=O)[C@H](Cc2cccnc2)NC(=O)[C@H](CCCNC(=N)N)NC(=O)[C@H](Cc2ccccc2)OC(=O)C23CC(CNC(=O)[C@H](Cc4ccccc4)N(C)C(=O)[C@H](CCCC)NC(=O)[C@H](Cc4ccccc4F)NC1=O)(C2)C3` [compound 212, cyclo(FLac-R-3Pal-Nle-Phe2F-Nle-NMeF-amBCP)] (cyclo([PhLac]R[3Pal][Nle][Phe(2-F)][Nle][NMeF][X1])), the 50% effective concentration (EC50) came to 20.7 nM.
Take `CCCC[C@@H]1NC(=O)[C@H](Cc2ccc(NC(=N)N)cc2)NC(=O)[C@H](CCCNC(=N)N)NC(=O)[C@H](Cc2ccccc2)NC(=O)C2CC(C2)NC(=O)[C@H](Cc2ccccc2)N(C)C(=O)[C@H](CCCC)NC(=O)[C@H](Cc2ccc(OC)cc2)NC1=O` [compound 92, cyclo(F-R-Phe4Gn-Nle-TyrOMe-Nle-NMeF-acBu)] (cyclo(FR[Phe(4-guanidino)][Nle]Y(Me)[Nle][NMeF][X58])): the EC50 amounted to 13.9 nM.
Compound `CCCCC[C@@H]1NC(=O)[C@H](Cc2ccc(OC)cc2)NC(=O)[C@H](CC2CCC2)NC(=O)[C@H](Cc2ccc(NC(=N)N)cc2)NC(=O)[C@H](CCCNC(=N)N)NC(=O)[C@H](Cc2ccccc2)NC(=O)CSC[C@H](C(N)=O)NC(=O)[C@H](Cc2ccccc2)N(C)C1=O` [compound 352, cyclo(F-R-Phe4Gn-cBuA-TyrOMe-Ahp-NMeF-dCl-ClAc)] ({CH2CO}-FR[Phe(4-guanidino)][Cba]Y(Me)[Ahp(2)][NMeF][dC]-NH2; thioether N-8) returned an EC50 of 4.92 nM.
The value for `CCCC[C@@H]1NC(=O)[C@H](Cc2cc(F)c(OC)c(F)c2)NC(=O)[C@H](C)N(C)C(=O)[C@H](Cc2ccccc2)OC(=O)C23CC(CNC(=O)[C@H](Cc4ccccc4)N(C)C(=O)[C@H](CCCC)NC(=O)[C@H](Cc4ccccc4F)NC1=O)(C2)C3` [compound 310, cyclo(FLac-NMeA-TyrOMe35F2-Nle-Phe2F-Nle-NMeF-amBCP)] (cyclo([NMeA][X71][Nle][Phe(2-F)][Nle][NMeF][X1][PhLac])) was 140 nM; that for `CCCC[C@@H]1NC(=O)[C@H](Cc2cccnc2)NC(=O)[C@H](C)N(C)C(=O)[C@H](Cc2ccc(F)cc2)NC(=O)C23CC(CNC(=O)[C@H](Cc4cccnc4)N(C)C(=O)[C@H](CCCC)NC(=O)[C@H](Cc4ccccc4F)NC1=O)(C2)C3` [compound 167, cyclo(Phe4F-NMeA-3Pal-Nle-Phe2F-Nle-NMe3Pal-amBCP)] (cyclo([3Pal][Nle][Phe(2-F)][Nle][NMe3Pal][X1][Phe(4-F)][NMeA])) was 99.9 nM; that for `C[C@H]1C(=O)N[C@@H](Cc2cncnc2)C(=O)N[C@@H](CC2CC2)C(=O)N[C@@H](Cc2ccccc2F)C(=O)N[C@@H](CCC2CC2)C(=O)N(C)[C@@H](Cc2ccccc2)C(=O)NCC23CC(C2)(C3)C(=O)O[C@@H](Cc2ccccc2)C(=O)N1C` [compound 114, cyclo(FLac-NMeA-PyrimAla-cPrA-Phe2F-hcPrA-NMeF-amBCP)] (cyclo([Ala(cPr)][Phe(2-F)][X31][NMeF][X1][PhLac][NMeA][Ala(pyrimidin-5-yl)])) was 2 nM.
In turn, `CCCCC[C@@H]1NC(=O)[C@H](Cc2ccc(OC)cc2)NC(=O)[C@H](CC2CCC2)NC(=O)[C@H](Cc2cccnc2)NC(=O)[C@H](CCCNC)N(C)C(=O)[C@H](Cc2ccccc2)NC(=O)CSC[C@@](C)(C(N)=O)NC(=O)[C@H](Cc2ccc(C)nc2)N(C)C1=O` [compound 393, cyclo(F-NMeOrnMe-3Pal-cBuA-TyrOMe-Ahp-NMe3Pal4Me-aMeCl-ClAc)] ({CH2CO}-F[NMeOrn(Me)][3Pal][Cba]Y(Me)[Ahp(2)][NMe3Pal(6-Me)][αMeC]-NH2; thioether N-8) had an EC50 of 132 nM.
As to `CCCCC[C@@H]1NC(=O)[C@H](Cc2ccc(OC)cc2)NC(=O)[C@H](CC2CCC2)NC(=O)[C@H](Cc2ccc(N3CCC[C@H]3CN)cc2)NC(=O)[C@H](CCCNC(=N)N)NC(=O)[C@H](Cc2ccccc2)NC(=O)CSC[C@@](C)(C(N)=O)NC(=O)[C@H](Cc2ccccc2)N(C)C1=O` [compound 392, cyclo(F-R-Phe4SamPyrr-cBuA-TyrOMe-Ahp-NMeF-aMeCl-ClAc)], the EC50 amounted to 8.59 nM.

The values above are taken from US20260001914A1, “MACROCYCLIC PEPTIDES TARGETING KRAS” (Merck Sharp & Dohme LLC, priority 2022, published 2026).
